Columns and labels:
[1] = Microscope search for new needle-shaped (co-)crystals in stored/stressed suspensions; type: physicochemical; settings: benzyl alcohol as preservative
Description: As consequence of the increased paraben concentration, a crystallization issue has been observed with the suspension Composition 2 after a few months in stability at different storage conditions. […] By IR, Raman and MS analysis, the new needle crystals are characterized as potentially being co-crystals of the API and Parabens.
Between the acceptable concepts 13 to 20, after 6M storage in cyclic conditions, only in the concept containing benzoic acid as an incipient was new crystallization observed. The other samples were stable. • All concepts were physically stressed by rolling.
All suspension concepts were rolled into a glass vial, closed with a child resistant stopper, at room temperature, horizontally, at a speed of 25 rpm, for 1M. […] Between these concepts, only concepts 18, 19 and 20 were stable.
Some concepts were spiked to try to induce a rapid co-crystallization. Concepts containing Methyl and Ethyl paraben, were spiked with few granules of powder of co-crystals of API/Methyl Paraben and API/Et Paraben.

[2] = 1M ASAP (Accelerated Stability Assessment Program) stability study; type: physicochemical; settings: samples stored for 1 month at 60° C.
Protocol: The new 25 concepts were screened in a 1M ASAP (Accelerated Stability Assessment Program) stability study (5, 40 and 60° C. storage conditions), in a 6M lab stability study and in PET tests.
The Results of the 6-Month (6M) Lab Stability

| (co-)crystallization [1] | reduction in preservative assay [2] | SMILES |
| --- | --- | --- |
| not observed | 1% | OCc1ccccc1 [benzyl alcohol] |
| – | about 15% | C/C=C/C=C/C(=O)O [Sorbic acid] |

| SMILES | (co-)crystallization [1] | reduction in preservative assay [2] |
| --- | --- | --- |
| O=C(O)c1ccccc1 [benzoic acid] | – | about 5% |
